Test results as given in ChEMBL document CHEMBL1145761 (Bioorg Med Chem Lett, 2003).

Molecular target: Neuronal acetylcholine receptor; alpha4/beta2 (Rattus norvegicus, UniProt P09483+P12390)
Assay: Affinity at alpha4-beta2 nACh receptors in rat brain (minus cerebellum) homogenates.
Format: tissue-based

Sequence of Neuronal acetylcholine receptor; alpha4/beta2 (P09483 whole entry): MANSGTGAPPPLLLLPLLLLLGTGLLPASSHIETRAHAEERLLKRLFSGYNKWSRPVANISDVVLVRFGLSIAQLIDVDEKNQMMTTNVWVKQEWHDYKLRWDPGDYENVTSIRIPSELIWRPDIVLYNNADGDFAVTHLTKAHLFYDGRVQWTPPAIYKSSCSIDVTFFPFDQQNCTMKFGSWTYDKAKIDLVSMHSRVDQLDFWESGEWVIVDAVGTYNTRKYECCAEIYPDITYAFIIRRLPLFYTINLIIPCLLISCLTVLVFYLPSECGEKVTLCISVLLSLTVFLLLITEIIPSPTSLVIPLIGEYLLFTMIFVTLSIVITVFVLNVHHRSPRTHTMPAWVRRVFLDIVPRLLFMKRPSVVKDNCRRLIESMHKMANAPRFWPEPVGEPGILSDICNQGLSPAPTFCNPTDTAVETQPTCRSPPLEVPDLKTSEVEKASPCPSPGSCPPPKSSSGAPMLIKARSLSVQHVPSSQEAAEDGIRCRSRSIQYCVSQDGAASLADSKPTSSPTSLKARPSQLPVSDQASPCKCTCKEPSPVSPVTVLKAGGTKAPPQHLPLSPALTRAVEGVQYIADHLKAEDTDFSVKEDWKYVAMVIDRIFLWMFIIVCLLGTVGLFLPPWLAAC
Sequence of Neuronal acetylcholine receptor; alpha4/beta2 (P12390 whole entry): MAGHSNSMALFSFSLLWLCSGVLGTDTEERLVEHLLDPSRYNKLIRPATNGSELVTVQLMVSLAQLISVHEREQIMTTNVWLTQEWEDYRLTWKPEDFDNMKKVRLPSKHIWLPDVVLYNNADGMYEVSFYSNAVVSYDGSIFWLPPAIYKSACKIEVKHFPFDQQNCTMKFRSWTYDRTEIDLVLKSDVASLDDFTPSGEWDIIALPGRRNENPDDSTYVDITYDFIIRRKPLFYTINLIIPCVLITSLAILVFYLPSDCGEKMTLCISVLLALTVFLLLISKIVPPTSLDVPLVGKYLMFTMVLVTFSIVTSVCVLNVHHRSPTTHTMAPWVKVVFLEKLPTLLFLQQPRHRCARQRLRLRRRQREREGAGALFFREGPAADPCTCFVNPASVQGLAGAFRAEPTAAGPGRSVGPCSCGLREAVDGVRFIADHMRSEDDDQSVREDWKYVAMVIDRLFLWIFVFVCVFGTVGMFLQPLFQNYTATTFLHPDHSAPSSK

Row | Compound | Ki
1 | c1cncc(C2=NCCC2)c1 [MYOSMINE] | 3300 nM
2 | CN1CCCC1c1cnc2ccccc2c1 (stereo unspecified) | 11 nM
3 | c1ccc(CN2CCCC2c2cccnc2)cc1 (stereo unspecified) | 360 nM
4 | CN1CCCC1c1ccc(-c2ccccc2)nc1 (stereo unspecified) | 9440 nM
5 | CN1CCN=C1Cc1ccc(-c2ccccc2)nc1 | 3260 nM
6 | CN1CCCC1c1ccc(Cl)nc1 (stereo unspecified) | 0.6 nM
7 | CN1CCCC1c1ccc(Br)nc1 (stereo unspecified) | 0.5 nM
8 | CN1CCN=C1Cc1ccc(Br)nc1 | 7.3 nM
9 | CN1CCN=C1Cc1cnc2ccccc2c1 | 38 nM
10 | COc1ccc(CC2=NCCN2C)cn1 | 46 nM
11 | CN1CCN=C1Cc1ccc(Cl)nc1 | 3.3 nM
